Data on 2 molecules can be found in US20030181461A1, “Use of phosphodiesterase antagonists to treat insulin resistance” (priority 2002, published 2003).

Test [1] relates to insulin resistance in cats. The experiment in a line: Development of insulin resistance in cats after muscarinic antagonists (RIST). In kind it is in vivo. The text has this:
To avoid the complexity of the reaction to hypoglycemia, the rapid insulin sensitivity test (RIST) was employed (Lautt et al., Can. J. Physiol. Pharmacol. 76:1080 (1998)) wherein a euglycemic clamp was used following the administration of insulin and the response was quantitated as the amount of glucose required to be infused over the test period in order to hold arterial blood glucose levels constant.

The test system of test [2] is insulin sensitivity in atropine-treated rats. The experiment in a line: Rapid insulin sensitivity test (RIST) in rats with atropine-induced 75% HISS-dependent insulin resistance. In kind it is in vivo, Male Sprague Dawley rats. As to conditions: zaprinast 0.1 mg/kg ipv. How it is done: Methods for reversal of HISS-dependent insulin resistance using a phosphodiesterase inhibitor in normal rats Male Sprague Dawley rats (250-300 g) were allowed free access to water and normal rodent food for 1 week prior to all studies. Rats were fasted for 8 hours overnight and fed for 2 hours before the start of study. Rats were anesthetized with pentobarbital-sodium (65 mg/ml, ip injection, 0.1 ml/100 g body weight). Animals were placed on a heated thermostatically controlled surgical table to maintain body temperature during surgery and the experimental procedure. An extra-corporeal arterial-venous shunt (the loop) was established between the right femoral artery and right femoral vein, according to a published, standard operating procedure developed in our laboratory (Xie et al., 1996). The loop allows for regular blood sampling of arterial blood throughout the experiment as well as infusion of intravenous drugs and monitoring of arterial blood pressure. […] A laparotomy was performed and an indwelling portal venous catheter was inserted using a portal vein puncture technique. The portal catheter was used to administer the phosphodiesterase inhibitor directly to the liver. […] At this point, blood samples (25 μl) were taken at regular intervals from the loop and analyzed for glucose concentration. […] Glucose levels were monitored every 2 minutes during and after the infusion of insulin. […]

Take `COc1ccccc1CNCCCCCCNCCCCCCCCNCCCCCCNCc1ccccc1OC` [methoctramine]: the “Dose required to produce a full (similar degree of) insulin resistance” value in test [1] was 10^−6 μmol/kg.

Consider `CCCOc1ccccc1-c1nc2nn[nH]c2c(=O)[nH]1` [zaprinast], for which the “Reversal of HDIR produced by atropine” value in test [2] is given as “able to reverse the HDIR produced by atropine”.
